Test results taken from US12286443B2, “Bycyclic JAK inhibitors and uses thereof” (Insilico Medicine IP Limited, priority 2019, dated 2025).

Molecular target: T1, JAK1 (Homo sapiens, UniProt P23458)
T1 construct: purchased Invitrogen PV4775
Experiment: Inhibition of JAK1 kinase, LANCE Ultra TR-FRET assay
Format: biochemical
Conditions: 2 nM JAK1, 2x ATP 76 μM, 15 min pre-incubation, 90 min reaction, 23° C.
Protocol: (§1) Exemplary compounds were assayed to determine potency in inhibiting activity of JAK1-3 and TYK2 kinases by determining IC50 values.
(§2) The sources of test materials and equipment are as follows: JAK1 (Invitrogen, Cat. No PV4775), JAK2 (Invitrogen, Cat. No PV4210), JAK3 (Invitrogen, Cat. No PV4080), TYK2 (Invitrogen, Cat. No PR8440C), ATP (Sigma, Cat. No. A7699-1G), DMSO (Sigma, Cat. No. D2650), DTT (Sigma, Cat. No. 43815), 384 wells_compound plate (Greiner, Cat. No. 781280), 384 wells_assay plate (Perkin Elmer, Cat. No. 6007299), LANCE Ultra ULight™-JAK-1 peptide (Perkin Elmer, Cat. No. TRF0121), LANCET™ Eu-W1024 Anti-phosphotyrosine (PT66) (Perkin Elmer, Cat. No. AD0069), LANCET™ Detection Buffer(Perkin Elmer, Cat. No. CR97-100).
(§3) The concentrations of test compounds varied from 100 μM to 1.7 nM with 3-fold dilution, 11 points, in duplicates while the concentrations of the reference compound, Tofacitinib, varied from 1 μM to 0.017 nM with 3-fold dilution, 11 points, in duplicates.
(§4) The assay buffer contained 50 mM HEPES (pH 7.5), 0.01% Brij-35, 10 mM MgCl2, 1 mM EDTA, 2 mM DTT. Incubations were carried out at 23° C.
(§5) Prior to the assay, enzyme, peptide substrate and serially diluted test compounds were pre-incubated together in assay buffer (5 μL) for 15 minutes (peptide substrate concentration: 50 nM; JAK enzyme concentrations: 2 nM JAK1; […]; […] and 4 nM TYK2). And the assay was initiated by the addition of 5 μL assay buffer containing 2× final ATP concentration (these are the 2×ATP concentrations: 76 μM JAK1; 24 μM JAK2; 8 μM JAK3 and 30 μM TYK2). Following the 90-minute incubation, antibody conjugated with Eu is dissolved in detection buffer to add into wells and then incubated for 60 minutes. The 10 μL detection buffer contains EDTA to stop the enzymatic reaction. The plate is analyzed by Perkin Elmer Envision on TR-FRET mode. The high ratio of 665/615 represents no inhibition of kinase reaction while the low ratio of 665/615 represents complete inhibition of kinase reaction.
(§6) Curves are fit by XLFIT5 as inhibition rate % vs. log [compound concentration] using 4 parameters logistic model 205.
(§7) In the table, “A” indicates an IC50 of less than 100 nM, “B” indicates an IC50 range from 100 nM to 500 nM; “C” indicates an IC50 range from 500 nM to 2 μM; and “D” indicates an IC50 greater than 2 μM. Also, “na” indicates data is not available.

T1 sequence (P23458 whole entry): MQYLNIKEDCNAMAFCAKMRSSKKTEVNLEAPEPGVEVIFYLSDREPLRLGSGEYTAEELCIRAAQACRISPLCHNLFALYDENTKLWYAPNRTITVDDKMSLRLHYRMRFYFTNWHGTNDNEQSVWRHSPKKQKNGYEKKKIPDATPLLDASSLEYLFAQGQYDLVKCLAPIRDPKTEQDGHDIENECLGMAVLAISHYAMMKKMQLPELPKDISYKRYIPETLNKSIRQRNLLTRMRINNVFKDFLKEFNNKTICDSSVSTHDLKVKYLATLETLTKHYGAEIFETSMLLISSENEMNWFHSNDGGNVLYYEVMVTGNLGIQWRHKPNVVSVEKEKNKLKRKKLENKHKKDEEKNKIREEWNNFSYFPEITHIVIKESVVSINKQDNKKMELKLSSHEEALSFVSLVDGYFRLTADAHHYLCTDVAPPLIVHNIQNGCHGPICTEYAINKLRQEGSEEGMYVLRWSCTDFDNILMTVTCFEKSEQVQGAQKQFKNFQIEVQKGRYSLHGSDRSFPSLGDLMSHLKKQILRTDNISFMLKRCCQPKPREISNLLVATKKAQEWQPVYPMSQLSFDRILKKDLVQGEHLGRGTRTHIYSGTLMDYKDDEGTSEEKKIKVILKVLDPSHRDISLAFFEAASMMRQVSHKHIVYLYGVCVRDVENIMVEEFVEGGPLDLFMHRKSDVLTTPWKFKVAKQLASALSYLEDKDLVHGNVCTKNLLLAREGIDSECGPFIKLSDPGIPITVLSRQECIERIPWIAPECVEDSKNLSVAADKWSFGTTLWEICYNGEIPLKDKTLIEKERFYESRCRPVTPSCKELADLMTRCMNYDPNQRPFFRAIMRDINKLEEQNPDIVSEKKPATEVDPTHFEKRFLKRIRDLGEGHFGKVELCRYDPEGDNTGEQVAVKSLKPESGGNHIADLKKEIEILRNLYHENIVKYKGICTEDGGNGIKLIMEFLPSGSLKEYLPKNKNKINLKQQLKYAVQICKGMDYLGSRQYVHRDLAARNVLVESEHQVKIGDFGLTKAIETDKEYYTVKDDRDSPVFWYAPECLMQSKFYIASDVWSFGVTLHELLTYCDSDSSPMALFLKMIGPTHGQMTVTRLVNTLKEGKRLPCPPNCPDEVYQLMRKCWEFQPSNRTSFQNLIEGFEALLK

SMILES | IC50
O=C(NCCC(F)(F)F)c1nn(CCCCc2ccccc2)c2c1CN(c1ncnc3[nH]ccc13)CC2 [Compound 116] | 100 to 500 nM
CCS(=O)(=O)NC(=O)[C@H]1C[C@H](NC(=O)c2nn(C)c3c2CN(c2ncnc4[nH]ccc24)CC3)C1 [Compound 126] | 100 to 500 nM
O=C(NCCC(F)(F)F)c1nn(C2CCOCC2)c2c1CN(c1ncnc3[nH]ccc13)CC2 [Compound 118] | 500 to 2000 nM
O=C(NCCc1ccccn1)c1noc2c1CN(c1ncnc3[nH]ccc13)CC2 [Compound 153] | 500 to 2000 nM
CCCS(=O)(=O)NC(=O)[C@H]1C[C@H](NC(=O)c2nn(C)c3c2CN(c2ncnc4[nH]ccc24)CC3)C1 [Compound 127] | 100 to 500 nM
O=C(NCCC(F)(F)F)c1nn(CCc2cccnc2)c2c1CN(c1ncnc3[nH]ccc13)CC2 [Compound 106] | > 2000 nM

Other lines, results leading:

IC50 | SMILES
100 to 500 nM | O=C(NC[C@@H]1CC[C@@H]1O)c1noc2c1CN(c1ncnc3[nH]ccc13)CC2 (relative stereo) [Compound 150-2]
100 to 500 nM | O=C(NCCC(F)(F)F)c1nn(Cc2ccccc2)c2c1CN(c1ncnc3[nH]ccc13)CC2 [Compound 111]

Molecular target: T2, JAK2 (Homo sapiens, UniProt O60674)
T2 construct: purchased Invitrogen PV4210
Experiment: Inhibition of JAK2 kinase, LANCE Ultra TR-FRET assay
Format: biochemical
Conditions: 2x ATP 24 μM, 15 min pre-incubation, 90 min reaction, 23° C.
Protocol: as §1, §2, §3, §4, §5, §6, §7

T2 sequence (O60674 whole entry): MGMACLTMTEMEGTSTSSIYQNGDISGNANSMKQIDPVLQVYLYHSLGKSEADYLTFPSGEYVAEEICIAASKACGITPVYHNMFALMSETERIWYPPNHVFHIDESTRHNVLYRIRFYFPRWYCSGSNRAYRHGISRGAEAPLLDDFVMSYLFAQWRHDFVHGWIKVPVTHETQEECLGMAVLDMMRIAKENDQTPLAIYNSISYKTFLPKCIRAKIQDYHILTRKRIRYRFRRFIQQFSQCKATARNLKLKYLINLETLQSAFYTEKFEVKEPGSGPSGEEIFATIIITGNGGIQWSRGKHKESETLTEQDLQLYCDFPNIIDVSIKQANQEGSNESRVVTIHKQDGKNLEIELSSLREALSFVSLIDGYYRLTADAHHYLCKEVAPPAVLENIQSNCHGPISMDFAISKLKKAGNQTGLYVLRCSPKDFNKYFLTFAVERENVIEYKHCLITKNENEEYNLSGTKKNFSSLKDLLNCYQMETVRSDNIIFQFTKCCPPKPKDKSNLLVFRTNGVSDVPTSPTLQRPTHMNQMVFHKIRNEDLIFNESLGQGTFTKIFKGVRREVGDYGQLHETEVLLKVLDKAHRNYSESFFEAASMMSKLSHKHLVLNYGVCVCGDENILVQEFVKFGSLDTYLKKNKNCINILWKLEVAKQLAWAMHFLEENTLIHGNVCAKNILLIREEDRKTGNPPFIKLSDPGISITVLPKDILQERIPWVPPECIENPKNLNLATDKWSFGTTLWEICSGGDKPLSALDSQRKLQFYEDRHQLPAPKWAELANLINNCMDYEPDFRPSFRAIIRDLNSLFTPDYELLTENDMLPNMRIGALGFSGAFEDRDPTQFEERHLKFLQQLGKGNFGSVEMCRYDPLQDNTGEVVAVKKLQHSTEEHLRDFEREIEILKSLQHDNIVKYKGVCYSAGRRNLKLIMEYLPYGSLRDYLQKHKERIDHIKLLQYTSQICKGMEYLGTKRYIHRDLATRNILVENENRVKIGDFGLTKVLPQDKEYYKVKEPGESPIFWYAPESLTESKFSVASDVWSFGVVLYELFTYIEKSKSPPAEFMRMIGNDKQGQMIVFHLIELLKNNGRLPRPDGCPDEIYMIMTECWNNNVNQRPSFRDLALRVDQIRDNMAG

SMILES | IC50
O=C(NCCC(F)(F)F)c1nn(CCCCc2ccccc2)c2c1CN(c1ncnc3[nH]ccc13)CC2 [Compound 116] | > 2000 nM
CCS(=O)(=O)NC(=O)[C@H]1C[C@H](NC(=O)c2nn(C)c3c2CN(c2ncnc4[nH]ccc24)CC3)C1 [Compound 126] | 500 to 2000 nM
O=C(NCCC(F)(F)F)c1nn(C2CCOCC2)c2c1CN(c1ncnc3[nH]ccc13)CC2 [Compound 118] | > 2000 nM
O=C(NCCc1ccccn1)c1noc2c1CN(c1ncnc3[nH]ccc13)CC2 [Compound 153] | 500 to 2000 nM
CCCS(=O)(=O)NC(=O)[C@H]1C[C@H](NC(=O)c2nn(C)c3c2CN(c2ncnc4[nH]ccc24)CC3)C1 [Compound 127] | 500 to 2000 nM
O=C(NCCC(F)(F)F)c1nn(CCc2cccnc2)c2c1CN(c1ncnc3[nH]ccc13)CC2 [Compound 106] | > 2000 nM

More lines, now with the values ahead:

IC50 | SMILES
100 to 500 nM | O=C(NC[C@@H]1CC[C@@H]1O)c1noc2c1CN(c1ncnc3[nH]ccc13)CC2 (relative stereo) [Compound 150-2]
500 to 2000 nM | O=C(NCCC(F)(F)F)c1nn(Cc2ccccc2)c2c1CN(c1ncnc3[nH]ccc13)CC2 [Compound 111]

Molecular target: T3, TYK2 (Homo sapiens, UniProt P29597)
T3 construct: purchased Invitrogen PR8440C
Experiment: Inhibition of TYK2 kinase, LANCE Ultra TR-FRET assay
Format: biochemical
Conditions: 4 nM TYK2, 2x ATP 30 μM, 15 min pre-incubation, 90 min reaction, 23° C., read-out: tyk IC50
Protocol: as §1, §2, §3, §4, §5, §6, §7

T3 sequence (P29597 whole entry): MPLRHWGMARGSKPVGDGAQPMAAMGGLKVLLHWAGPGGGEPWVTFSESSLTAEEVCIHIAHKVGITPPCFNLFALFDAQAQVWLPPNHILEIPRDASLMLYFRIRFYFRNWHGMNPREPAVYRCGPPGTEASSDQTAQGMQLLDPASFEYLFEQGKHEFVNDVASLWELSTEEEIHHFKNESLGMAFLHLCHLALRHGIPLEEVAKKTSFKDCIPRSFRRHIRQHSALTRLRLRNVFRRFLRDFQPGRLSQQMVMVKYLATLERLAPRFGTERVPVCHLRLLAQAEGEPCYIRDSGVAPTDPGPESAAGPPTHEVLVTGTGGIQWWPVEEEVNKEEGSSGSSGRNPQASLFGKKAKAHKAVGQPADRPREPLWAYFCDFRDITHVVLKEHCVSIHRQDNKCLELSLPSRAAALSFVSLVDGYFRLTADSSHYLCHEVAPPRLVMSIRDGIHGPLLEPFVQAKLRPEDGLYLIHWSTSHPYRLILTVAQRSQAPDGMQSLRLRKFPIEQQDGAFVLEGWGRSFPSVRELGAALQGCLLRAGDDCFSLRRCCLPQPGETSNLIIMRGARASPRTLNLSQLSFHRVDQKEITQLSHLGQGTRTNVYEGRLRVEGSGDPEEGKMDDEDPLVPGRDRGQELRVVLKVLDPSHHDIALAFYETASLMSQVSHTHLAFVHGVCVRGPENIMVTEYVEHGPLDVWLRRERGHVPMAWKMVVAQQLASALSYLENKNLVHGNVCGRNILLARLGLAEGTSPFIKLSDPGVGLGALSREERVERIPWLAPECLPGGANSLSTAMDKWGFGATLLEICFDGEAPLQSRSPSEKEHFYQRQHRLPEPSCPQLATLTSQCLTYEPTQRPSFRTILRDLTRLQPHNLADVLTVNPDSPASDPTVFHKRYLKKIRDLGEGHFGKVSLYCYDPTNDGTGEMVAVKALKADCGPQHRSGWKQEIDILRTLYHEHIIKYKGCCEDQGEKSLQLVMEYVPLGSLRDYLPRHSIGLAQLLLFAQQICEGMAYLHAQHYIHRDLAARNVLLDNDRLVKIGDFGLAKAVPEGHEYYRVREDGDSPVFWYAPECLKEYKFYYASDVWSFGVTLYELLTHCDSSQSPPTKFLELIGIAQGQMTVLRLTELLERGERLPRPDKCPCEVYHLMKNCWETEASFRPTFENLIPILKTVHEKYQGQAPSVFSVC

SMILES | IC50
O=C(NCCC(F)(F)F)c1nn(CCCCc2ccccc2)c2c1CN(c1ncnc3[nH]ccc13)CC2 [Compound 116] | > 2000 nM
CCS(=O)(=O)NC(=O)[C@H]1C[C@H](NC(=O)c2nn(C)c3c2CN(c2ncnc4[nH]ccc24)CC3)C1 [Compound 126] | > 2000 nM
O=C(NCCC(F)(F)F)c1nn(C2CCOCC2)c2c1CN(c1ncnc3[nH]ccc13)CC2 [Compound 118] | > 2000 nM
O=C(NCCc1ccccn1)c1noc2c1CN(c1ncnc3[nH]ccc13)CC2 [Compound 153] | > 2000 nM
CCCS(=O)(=O)NC(=O)[C@H]1C[C@H](NC(=O)c2nn(C)c3c2CN(c2ncnc4[nH]ccc24)CC3)C1 [Compound 127] | > 2000 nM
O=C(NCCC(F)(F)F)c1nn(CCc2cccnc2)c2c1CN(c1ncnc3[nH]ccc13)CC2 [Compound 106] | > 2000 nM

Further lines, results first:

IC50 | SMILES
> 2000 nM | O=C(NC[C@@H]1CC[C@@H]1O)c1noc2c1CN(c1ncnc3[nH]ccc13)CC2 (relative stereo) [Compound 150-2]
> 2000 nM | O=C(NCCC(F)(F)F)c1nn(Cc2ccccc2)c2c1CN(c1ncnc3[nH]ccc13)CC2 [Compound 111]

Molecular target: T4, JAK3 (Homo sapiens, UniProt P52333)
T4 construct: purchased Invitrogen PV4080
T4 sequence (P52333 1-1124): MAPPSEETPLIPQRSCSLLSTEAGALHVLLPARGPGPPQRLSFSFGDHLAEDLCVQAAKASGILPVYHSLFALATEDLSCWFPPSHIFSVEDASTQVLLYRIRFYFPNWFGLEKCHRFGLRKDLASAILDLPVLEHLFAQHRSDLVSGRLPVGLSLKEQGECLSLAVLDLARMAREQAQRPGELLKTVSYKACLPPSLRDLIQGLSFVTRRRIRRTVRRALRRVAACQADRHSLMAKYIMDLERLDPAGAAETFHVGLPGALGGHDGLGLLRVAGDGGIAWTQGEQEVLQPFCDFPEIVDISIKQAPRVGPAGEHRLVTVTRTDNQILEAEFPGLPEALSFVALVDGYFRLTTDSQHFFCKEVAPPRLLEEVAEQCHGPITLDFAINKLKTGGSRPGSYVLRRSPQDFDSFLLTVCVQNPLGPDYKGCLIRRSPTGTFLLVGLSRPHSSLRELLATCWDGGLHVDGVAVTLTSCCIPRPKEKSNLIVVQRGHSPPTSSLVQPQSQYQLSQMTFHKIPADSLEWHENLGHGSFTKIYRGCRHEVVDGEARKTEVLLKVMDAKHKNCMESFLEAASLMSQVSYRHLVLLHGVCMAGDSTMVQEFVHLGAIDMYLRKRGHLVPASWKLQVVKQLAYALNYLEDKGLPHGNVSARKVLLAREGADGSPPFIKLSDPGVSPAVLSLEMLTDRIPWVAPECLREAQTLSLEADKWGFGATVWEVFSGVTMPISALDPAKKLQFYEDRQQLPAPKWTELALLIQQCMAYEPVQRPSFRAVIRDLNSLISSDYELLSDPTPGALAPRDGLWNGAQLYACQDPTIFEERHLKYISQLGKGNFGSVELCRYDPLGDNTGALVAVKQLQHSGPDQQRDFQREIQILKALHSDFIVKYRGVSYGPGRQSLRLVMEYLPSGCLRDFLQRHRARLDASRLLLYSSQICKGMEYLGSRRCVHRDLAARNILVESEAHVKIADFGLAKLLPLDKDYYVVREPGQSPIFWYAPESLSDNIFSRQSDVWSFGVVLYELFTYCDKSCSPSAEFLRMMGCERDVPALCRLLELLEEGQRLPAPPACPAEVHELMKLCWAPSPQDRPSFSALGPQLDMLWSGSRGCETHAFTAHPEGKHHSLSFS
Experiment: Inhibition of JAK3 kinase, LANCE Ultra TR-FRET assay
Format: biochemical
Conditions: 2x ATP 8 μM, 15 min pre-incubation, 90 min reaction, 23° C.
Protocol: as §1, §2, §3, §4, §5, §6, §7

SMILES | IC50
O=C(NCCC(F)(F)F)c1nn(CCCCc2ccccc2)c2c1CN(c1ncnc3[nH]ccc13)CC2 [Compound 116] | 100 to 500 nM
CCS(=O)(=O)NC(=O)[C@H]1C[C@H](NC(=O)c2nn(C)c3c2CN(c2ncnc4[nH]ccc24)CC3)C1 [Compound 126] | 100 to 500 nM
O=C(NCCC(F)(F)F)c1nn(C2CCOCC2)c2c1CN(c1ncnc3[nH]ccc13)CC2 [Compound 118] | 100 to 500 nM
O=C(NCCc1ccccn1)c1noc2c1CN(c1ncnc3[nH]ccc13)CC2 [Compound 153] | 100 to 500 nM
CCCS(=O)(=O)NC(=O)[C@H]1C[C@H](NC(=O)c2nn(C)c3c2CN(c2ncnc4[nH]ccc24)CC3)C1 [Compound 127] | 100 to 500 nM
O=C(NCCC(F)(F)F)c1nn(CCc2cccnc2)c2c1CN(c1ncnc3[nH]ccc13)CC2 [Compound 106] | 100 to 500 nM

Further lines, results first:

IC50 | SMILES
< 100 nM | O=C(NC[C@@H]1CC[C@@H]1O)c1noc2c1CN(c1ncnc3[nH]ccc13)CC2 (relative stereo) [Compound 150-2]
< 100 nM | O=C(NCCC(F)(F)F)c1nn(Cc2ccccc2)c2c1CN(c1ncnc3[nH]ccc13)CC2 [Compound 111]
